# Legend:
# [1] = system: maize LL-DAP transaminase; experiment: Inhibitors of LL-DAP transaminase, ortho aminobenzaldehyde assay; type: biochemical, maize (Zea mays); details: substrate LL-DAP 0.5 mM
# Method: (§1) For enzyme assays of crude proteins, extracts were prepared by grinding tissue in liquid nitrogen with 100 mM HEPESKOH (pH 7.6), followed by centrifugation at 10,000 g for 15 min, and then buffer exchange using an Amicon Ultra 30,000 MWCO filter. […] Reactions were incubated at 30° C. and the ΔA (440 nm) measured continuously. […] The reaction was incubated at 30° C., and the decrease in A340 was measured. […] The reaction was run to completion, determined by monitoring the increase in A340. […] The kinetic constants were calculated by nonlinear regression analysis using GraphPad Prizm version 4.03.
# (§2) Assays for assessing the ability of certain compounds to inhibit LL-DAP aminotransferase have been performed and the results are shown below in Table V. The reactions were performed as described above.
# [2] = molecular target: A. thaliana LL-DAP transaminase (Arabidopsis thaliana, UniProt Q93ZN9); experiment: Inhibitors of LL-DAP transaminase, m-DAP dehydrogenase coupled assay; type: biochemical; details: inhibitor 40 mM, substrate LL-DAP 0.05 mM
# A. thaliana LL-DAP transaminase, sequence (Q93ZN9 40-461): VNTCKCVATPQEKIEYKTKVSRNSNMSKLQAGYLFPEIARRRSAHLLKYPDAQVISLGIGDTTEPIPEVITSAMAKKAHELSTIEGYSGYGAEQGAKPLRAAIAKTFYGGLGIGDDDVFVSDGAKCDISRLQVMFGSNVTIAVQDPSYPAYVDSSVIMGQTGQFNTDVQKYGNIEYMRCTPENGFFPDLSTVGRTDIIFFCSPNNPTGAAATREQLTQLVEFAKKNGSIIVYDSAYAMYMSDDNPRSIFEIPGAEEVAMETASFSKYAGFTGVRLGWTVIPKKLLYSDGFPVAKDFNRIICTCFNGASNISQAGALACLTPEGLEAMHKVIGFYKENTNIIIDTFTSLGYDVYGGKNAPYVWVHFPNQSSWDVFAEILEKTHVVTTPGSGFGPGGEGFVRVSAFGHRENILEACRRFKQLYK
# Method: as §1, §2
# CT390 [3] = molecular target: T1, CT390 (Chlamydia trachomatis serovar D, UniProt O84395); experiment: Quantitative reverse assay of pure CT390; type: biochemical; details: for Km: reverse assay, apparent Km; for Use as amino donor by CT390: reverse direction
# T1 construct: His-Tag (N); made in house; host or cells: E. coli
# T1 sequence (O84395 whole entry): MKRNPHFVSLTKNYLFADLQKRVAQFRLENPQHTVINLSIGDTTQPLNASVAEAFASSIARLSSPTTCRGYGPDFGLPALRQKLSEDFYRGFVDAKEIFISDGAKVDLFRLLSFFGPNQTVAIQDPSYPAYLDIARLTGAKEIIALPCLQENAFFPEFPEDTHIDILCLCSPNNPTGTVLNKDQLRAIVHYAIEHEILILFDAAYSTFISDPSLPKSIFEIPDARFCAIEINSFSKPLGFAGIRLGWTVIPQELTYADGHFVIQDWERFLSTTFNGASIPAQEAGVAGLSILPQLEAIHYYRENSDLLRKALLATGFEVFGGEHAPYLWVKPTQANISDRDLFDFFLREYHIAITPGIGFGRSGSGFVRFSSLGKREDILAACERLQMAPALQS
# [4] = molecular target: Methanothermobacter thermautotrophicus LL-DAP transaminase MTH52 (Methanothermobacter thermautotrophicus, UniProt O26158); experiment: Quantitative forward and reverse assays of purified LL-DAP transaminases (Example III); details: reverse assay
# Methanothermobacter thermautotrophicus LL-DAP transaminase MTH52, sequence (O26158 whole entry): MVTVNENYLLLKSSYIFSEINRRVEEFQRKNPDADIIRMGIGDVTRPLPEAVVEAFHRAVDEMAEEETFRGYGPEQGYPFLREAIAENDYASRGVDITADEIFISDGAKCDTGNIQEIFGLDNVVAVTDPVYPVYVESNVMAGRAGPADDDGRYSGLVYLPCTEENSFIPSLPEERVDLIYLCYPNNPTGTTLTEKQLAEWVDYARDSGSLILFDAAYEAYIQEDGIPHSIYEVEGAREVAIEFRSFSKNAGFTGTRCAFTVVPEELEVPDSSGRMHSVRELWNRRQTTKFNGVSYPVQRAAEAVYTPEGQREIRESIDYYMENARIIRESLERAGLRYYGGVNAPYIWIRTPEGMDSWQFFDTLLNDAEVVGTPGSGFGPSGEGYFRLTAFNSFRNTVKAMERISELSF
# Method: This plasmid was transformed into E. coli BL21-CodonPlus®-RIPL for expression and purification of the recombinant protein.
# For protein expression the E. coli strains were grown on LB at 37° C. to an OD600 nm of 0.5 and protein expression was then induced with 1 mM IPTG for 4 hr at 25° C. Cells were lysed by sonication in a solution of 50 mM sodium phosphate and 300 mM NaCl (pH 8.0). Metabolites in the extract were removed by buffer exchange using an Amicon Ultra 30,000 MWCO ultrafilter and sodium phosphate/NaCl buffer, and the concentrated soluble protein sample was used for measurement of enzyme activity as an initial assessment of enzyme function. When the recombinant protein was to be purified a larger cell culture was grown and lysed as described above, but the buffer exchange step was not carried out. […] The pure protein was then concentrated in an Amicon Ultra 30,000 MWCO ultrafilter, replacing the elution buffer with 100 mM HepesKOH, pH 7.6.
# CT390 [5] = molecular target: T1, CT390; experiment: Quantitative forward assay of pure CT390; type: biochemical; details: apparent Km
# Method: All enzyme assays were carried out essentially as described in Example I. Incubation temperature was 30° C. Kinetic constants were determined by varying substrate concentrations while keeping the co-substrate level constant at the concentration described below. Kinetic data were analyzed by non-linear regression analysis using GraphPad Prizm Version 4.03.
# Quantitative assay of the physiologically forward reaction was carried out sequentially in a pre-reaction to generate THDP from m-DAP followed by an LL-DAP aminotransferase assay. […] The pre-reaction was run to completion, monitored by the increase in absorbance at 340 nm resulting from NADPH formation. The aminotransferase reaction was monitored at 398 nm to measure the formation of thioNADH. […] Subsequently, the aminotransferase assay was initiated by addition of CT390, bringing the total reaction volume to 1 mL.
# [6] = molecular target: Arabidopsis thaliana LL-DAP-AT (At4g33680), wild type, recombinant (lacks first 39 amino acids, hexa-His and S-TAG), SEQ ID NO: 7 (Arabidopsis thaliana, UniProt Q93ZN9); experiment: Quantitative coupled reverse and forward assays of pure recombinant LL-DAP-AT (Table III); type: biochemical
# Arabidopsis thaliana LL-DAP-AT (At4g33680), wild type, recombinant (lacks first 39 amino acids, hexa-His and S-TAG), SEQ ID NO: 7, sequence (Q93ZN9 40-461): as the sequence (Q93ZN9 40-461) above
# Method: as §1
# For this reason quantitative coupled assays were developed to assess the enzyme activity in both the reverse and forward directions. […] The reaction sequence is shown in Scheme 1.
# The overall reaction series is shown in Scheme 2.
# Thio-NADH has an absorbance maximum at 398 nm, which can be discerned from NADPH, which has an absorbance maximum at 340 nm. FIG. 4 illustrates such a reaction. […] Two plots are shown using 0.55 and 0.055 mM m-DAP.
# Arabidopsis LL-DAP-AT = molecular target: T2, Arabidopsis LL-DAP-AT (Arabidopsis thaliana, UniProt Q93ZN9); experiment: OAB assay of LL-DAP-AT activity in Arabidopsis leaf extract; type: biochemical; details: added at 1,000-fold excess over LL-DAP; data not shown
# T2 construct: The protein extract was prepared from Arabidopsis leaves by grinding in liquid nitrogen; from tissue; host or cells: Arabidopsis leaves / axenically grown plants, crude soluble extract
# T2 sequence (Q93ZN9 46-461): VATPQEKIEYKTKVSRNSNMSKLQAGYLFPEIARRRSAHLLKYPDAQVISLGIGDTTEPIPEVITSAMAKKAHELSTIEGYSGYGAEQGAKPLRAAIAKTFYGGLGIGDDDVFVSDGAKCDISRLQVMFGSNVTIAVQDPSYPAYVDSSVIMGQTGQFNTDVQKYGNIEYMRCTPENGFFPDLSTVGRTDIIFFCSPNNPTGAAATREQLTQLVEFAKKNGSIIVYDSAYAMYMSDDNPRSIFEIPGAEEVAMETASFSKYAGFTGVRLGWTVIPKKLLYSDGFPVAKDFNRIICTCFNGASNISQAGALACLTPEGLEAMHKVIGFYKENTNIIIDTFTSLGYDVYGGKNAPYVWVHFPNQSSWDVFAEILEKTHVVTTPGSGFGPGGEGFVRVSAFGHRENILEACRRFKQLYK
# Method: FIGS. 2A and 2B. LL-DAP-AT activity in Arabidopsis. […] The reaction was incubated at 30° C. The protein extract was prepared from Arabidopsis leaves by grinding in liquid nitrogen with 100 mM HEPESKOH (pH 7.6), centrifugation at 10,000 g for 15 min, and buffer exchange using an Amicon Ultra 30,000 MWCO filter.
# as §1
# The rate of the reaction was directly proportional to the amount of protein extract added (FIG. 2B). […] If the extract was heated in a boiling water bath for 5 min, the activity was completely destroyed. […] Moreover, since the source material was axenically grown, the activity must have been derived from the Arabidopsis rather than a contaminating microorganism.
# AGD2 protein (At4g33680) = AGD2 protein (At4g33680) (Arabidopsis thaliana, UniProt Q93ZN9); details: transamination of Lys, Song et al. (2004); cited from earlier work
# AGD2 protein (At4g33680), sequence (Q93ZN9 46-461): as above
# LL-DAP transaminase [7] = experiment: Quantitative reverse assay of purified microbial LL-DAP transaminases; type: biochemical; details: reverse
# Method: (§3) Enzyme assays were performed as described above in Examples I and II.
# (§4) The catalytic properties of sll0480, BF2643, Dhaf—3980, MTH52, and SfumDRAFT0821 were studied in greater detail using purified enzymes to determine their kinetic constants using quantitative forward and reverse assays.
# LL-DAP transaminase [8] = experiment: Quantitative forward assay of purified microbial LL-DAP transaminases; type: biochemical
# Method: as §3, §4
# LL-DAP transaminase [9] = molecular target: T3, LL-DAP transaminase (Synechocystis sp., UniProt Q55828); experiment: Quantitative reverse assay of purified microbial LL-DAP transaminases; type: biochemical; details: keto acids (5 mM) substituted for 2-oxoglutarate in reverse and for THDPA in forward reaction
# T3 construct: His-Tag; made in house; host or cells: E. coli BL21-CodonPlus-RIPL
# T3 sequence (Q55828 whole entry): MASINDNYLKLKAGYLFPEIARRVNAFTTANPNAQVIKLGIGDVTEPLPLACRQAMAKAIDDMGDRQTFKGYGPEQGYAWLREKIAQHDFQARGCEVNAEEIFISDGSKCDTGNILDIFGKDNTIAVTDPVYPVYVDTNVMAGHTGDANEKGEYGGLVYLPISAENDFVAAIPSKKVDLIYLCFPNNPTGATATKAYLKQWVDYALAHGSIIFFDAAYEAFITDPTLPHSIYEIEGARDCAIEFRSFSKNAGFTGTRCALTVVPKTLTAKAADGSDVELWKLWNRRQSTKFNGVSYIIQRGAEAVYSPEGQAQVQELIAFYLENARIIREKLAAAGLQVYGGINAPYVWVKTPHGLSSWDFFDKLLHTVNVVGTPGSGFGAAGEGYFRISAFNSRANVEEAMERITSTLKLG
# Method: as §3, §4
molecule,measurement,setting,value
"NC(CCCCC(=O)O)C(=O)O (racemic) [L, D-α-aminopimelate]",Inhibition %,[1]; inhibitor 5 mM,50+ %
same,Inhibition %,[1]; inhibitor 10 mM,83+ %
"NC(CCC(O)C(N)C(=O)O)C(=O)O (racemic) [Threo-β-hydroxy DAP (racemic), Threo-β-hydroxy DAP]",inhibition at 40000 µM,[2],68%
"O=C(O)CCC(=O)C(=O)O [2-OG, 2-oxoglutarate, reference compound]",Km,CT390 [3],650 µM
"O=C(O)CCC(=O)C(=O)O [2-OG, 2-oxoglutarate]",Km,[4],800 µM
"N[C@@H](CCC(=O)O)C(=O)O [Glu, glutamate, reference compound]",Km,CT390 [5],1000 µM
"N[C@@H](CCC[C@H](N)C(=O)O)C(=O)O [LL-DAP, LL-2,6-diaminopimelate]",Km,CT390 [3],20 µM
same,Km for LL-DAP lower than the value for Lys,[6]; compared with Km of 58.8 mM for Lys of Song et al. (2004),830 fold
same,Kcat,"[6]; reverse assay, pH 7.5, 30° C.",17.6 s⁻¹
"NCCCC[C@H](N)C(=O)O [Lys, lysine]",Use as amino donor by CT390,CT390 [3],unable to use
same,Inhibition of the use of LL-DAP (LL-DAP-AT activity),Arabidopsis LL-DAP-AT,did not inhibit
same,Km,AGD2 protein (At4g33680),58800 µM
"O=C(O)C1=N[C@H](C(=O)O)CCC1 [THDPA, L-2,3,4,5-tetrahydrodipicolinate]",Km,CT390 [5],200 µM
same,Kcat,"[6]; forward assay, pH 7.5",0.3 s⁻¹
N[C@@H](CCSC[C@H](N)C(=O)O)C(=O)O [cystathionine],Use as amino donor by CT390,CT390 [3],unable to use
"NC(CCCC(N)C(=O)O)C(=O)O (centres unmarked) [m-DAP, m-2,6-diaminopimelate]",Use as amino donor by CT390,CT390 [3],able to use
same,Inhibition of the use of LL-DAP (LL-DAP-AT activity),Arabidopsis LL-DAP-AT,did not inhibit
Mth52: LL-DAP transaminase from M. thermoautotrophicum,Km,"LL-DAP transaminase [7]; read-out: Km 2-OG, substrate 2-OG",800 µM
same,Vmax R,LL-DAP transaminase [7],4.7 µmol/min/mg
same,Vmax F,LL-DAP transaminase [8],0.6 µmol/min/mg
sII0480: LL-DAP transaminase from Synechocystis sp.,Keto acid specificity,LL-DAP transaminase [9],active only with 2-oxoglutarate or THDPA
same,Vmax R,LL-DAP transaminase [7],3.3 µmol/min/mg
same,Vmax F,LL-DAP transaminase [8],0.25 µmol/min/mg

# Reference: patent US20090158455A1, “COMPOSITIONS AND METHODS FOR MODULATING LYSINE PRODUCTION” (priority 2005, published 2009)
